This is an account of results in article PMC12474757, “Paving the way for future PSMA inhibitors: insights from comparative preclinical evaluations of structure modifications” (EJNMMI Radiopharmacy and Chemistry, 2025).

Like-named read-outs stand apart in the source and are kept apart here.

The target of data set [1] is PSMA. Particulars: PSMA affinity, cited from earlier work.
The test system of data set [2] is LNCaP tumour-bearing mice. Briefly: Ex vivo biodistribution in LNCaP tumour-bearing mice. Also on record: species or system SCID mice. Particulars: for tumour-to-blood ratio / tumour-to-muscle ratio / tumour-to-kidney ratio: mean ± SD, n = 4. How it is done: The eight-week-old male SCID mice (Charles River, Massachusetts, USA) were used to generate the mouse tumour model. The implantation of 10 million LNCaP cells (ATCC, Virginia, USA) per mouse in a 1:1 mixture of Matrigel matrix (Corning, New York, USA) was performed subcutaneously behind the right shoulder of the mouse. Tumours of adequate size, representing a volume of 100–300 mm³, were observed after five to six weeks.
Ex vivo biodistribution of PSMA inhibitors in tumor-bearing mice was conducted as follows. Concisely, 30 µL of acetate buffer was added to the each ⁶⁸Ga -labelled inhibitor, namely: ⁶⁸Ga-P15, ⁶⁸Ga-P16, ⁶⁸Ga-P19, and ⁶⁸Ga-PSMA-617 to achieve physiological pH. Mice were r.o. injected with 100 µL of labelled inhibitor (2 MBq, approximately 0.5 µg of the inhibitor). Animals were divided into two groups for biodistribution studies at 1 and 2 h after administration of the respective ^68Ga-labelled PSMA inhibitor. The animals were sacrificed and autopsied after euthanasia, and organs: spleen, pancreas, stomach, intestine, kidney, liver, heart, lung, muscle, bone, and tumour were collected in scintillation vials. The vials containing the samples were weighed and measured in a Wizard2 gamma counter (PerkinElmer, USA). The measured values were then adjusted for radionuclide decay and expressed as a percentage of administered dose per gram of organ (%ID/g). The NanoScan® hybrid Positron Emission Tomography/Computed Tomography (PET/CT) machine (Mediso, Budapest, Hungary) was used for in vivo imaging specifically whole-body helical PET/CT scans. Imaging settings were: single field of view (FOV) PET scans (98.5 mm) which took 10 min for each mouse and helical CT scans (50 kVp/980 µA, 720 projections) both took place one hour after the administration. Each mouse received an injection of approximately 10 MBq of tested radiopharmaceutical. To prevent the mice’s eyes from drying out during anaesthesia eye ointment (Ophthalmo-Azulen, Zentiva, CR) was applied. Image reconstruction was performed using Mediso Tera-Tomo 3D PET iterative reconstruction (Mediso Medical Imaging Systems, Budapest, Hungary). Both reconstruction and data evaluation were performed in Mediso InterView FUSION software (Mediso Medical Imaging Systems, Budapest, Hungary) (Mediso, Budapest, Hungary). Final images were normalised to injected activity and animal weight. All organs with radiopharmaceutical accumulation were roughly delineated on the images, while their SUVmax value was recorded. The SUV41% (Standardized Uptake Value 41%) was then calculated as 41% of each SUVmax value of given hotspot and the ROI was delineated based on this value (Boellaard et al. [2015]). All images were exported in maximum intensity projection (MIP) mode. The results from the ex vivo biodistribution study were subjected to statistical analysis, namely unpaired Student’s t-test (Microsoft Excel 365, USA).

Data set [3] in a line: Radiochemical stability in physiological pH water environment. Type of data set: physicochemical. Particulars: pH 7, 37 °C; for Stability in Physiological pH (%): radiochemical purity, n = 1. How it is done: (§1) Quality control, i.e. radiochemical purity, of the ^68Ga-labelled PSMA inhibitors was evaluated by analytical high performance liquid chromatography (HPLC; Dionex UltiMate 3000, Thermo Scientific, Waltham, Massachusetts, USA) using the following equipment: ACE 3 C18 column; 150 × 3 mm, 3 μm (Advanced Chromatography Technologies Ltd, Aberdeen, UK), with gradient elution A: H2O/acetonitrile (ACN); B:0.1% trifluoroacetic acid (TFA)/H2O: 0–3 min, 0% ACN; 3–10 min, 0 − 50% ACN; 10–13 min, 50 − 80% ACN; 13–15 min, 80–0% ACN, for 15 min at a flow rate of 1 mL/min. Radiometric detection was performed using a GABI Star radiodetector (Raytest GmbH, Straubenhardt, Germany) and for chromatogram quantification Chromatography Data System (CDS) - Chromeleon software (Thermo Scientific, USA) was used. The actual sample injection was performed using a Hamilton microinjector (Hamilton, USA).
Radiochemical stability in a physiological pH water environment was determined as follows: 100 µL of acetate buffer (1.1 mol/L) was added to the labelled preparation and the pH was then checked with a pH indicator paper to be 7. The mixture was further incubated at 37 °C and after 30, 60 and 120 min, 10 µL aliquot was used for HPLC analysis of radiochemical purity.

Data set [4] in a line: Binding to human plasma proteins. Type of data set: in vitro ADME. Particulars: human plasma, 37 °C, n = 2, read-out: Protein binding (%) (converted). As for the experimental part: (§2) Binding to human plasma proteins was determined following this procedure: 10 µL of the ⁶⁸Ga-P15 with radioactivity of 45 kBq/100 µL was mixed with 190 µL of human plasma. The sample was then incubated at 37 °C. After 0, 30, 60 and 120 min 25 µL of the sample was collected, applied to the appropriate column and centrifuged at 2000 g for 2 minutes. The radioactivity of the samples was then measured using a gamma counter 2480 Wizard^2 (PerkinElmer, Waltham, MA, USA), and then the binding to plasma proteins was calculated using the following formula % plasma protein binding = (Aelution/Atotal)×100. The same procedure was applied when determining binding to plasma proteins of ⁶⁸Ga-P16, ⁶⁸Ga-P19, and ⁶⁸Ga-PSMA-617.

The nature of data set [5]: Stability in human plasma/serum (radiochemical purity by HPLC). It counts as in vitro ADME. Particulars: radiochemical purity, 37 °C, n = 1. As for the experimental part:
as §1
Plasma stability was determined as follows. To 100 µL of ⁶⁸Ga-P15 with radioactivity of 45 kBq/100 µL, 400 µL of human plasma was added and mixed. The mixture was incubated at 37 °C and 100 µL samples were taken at 30, 60 and 120 min. These samples were then mixed with 200 µL of acetonitrile and placed on a shaker for 1 min. The sample was then centrifuged at 15,000 rpm for 3 min. After centrifugation, the supernatant was collected for radiochemical purity analysis by HPLC. The same procedure was applied when determining plasma stability of ⁶⁸Ga-P16, ⁶⁸Ga-P19, and ⁶⁸Ga-PSMA-617.

For data set [6], the system named is human plasma proteins. Particulars: cited from earlier work.
The test system of data set [7] is human plasma proteins. Briefly: Binding to human plasma proteins. Type of data set: in vitro ADME. Particulars: for Protein binding (%): human plasma, 37 °C, n = 2. As for the experimental part:
as §2

Data set [8] concerns mouse serum proteins. Also on record: method as in Umbricht et al. [2018]. Particulars: ref Umbricht et al. [2018]; cited from earlier work.
A short description of data set [9]: Stability in human plasma/serum (radiochemical purity by HPLC). It counts as in vitro ADME. Particulars: 37 °C, incubation time 0 min, n = 1.

For `O=C(O)CCC(NC(=O)NC(CCC(=O)O)C(=O)O)C(=O)O` (centres unmarked) [Glu-urea-Glu], the Ki (as a rule, a measure of affinity in units of concentration, obtained from inhibition or displacement) in data set [1] (ref Kozikowski et al. [2001]) is 47 nM.
Regarding `NCCCCC(NC(=O)NC(CCC(=O)O)C(=O)O)C(=O)O` (centres unmarked) [Glu-urea-Lys], the inhibition constant Ki in data set [1] (ref Banerjee et al. [2008]) was 15.2 nM.
As to `O=C(O)CC[C@H](NC(=O)N[C@@H](CCC(=O)N[C@H](Cc1ccc2ccccc2c1)C(=O)N[C@H]1CC[C@H](NC(=O)CN2CCN(CC(=O)O)CCN(CC(=O)O)CCN(CC(=O)O)CC2)CC1)C(=O)O)C(=O)O` [P15, Glu-urea-Glu-2-Nal-D-Ala-NH-CHX-NH-DOTA], the “specific accumulation (tumour), fold lower than [68Ga]Ga-PSMA-617” value is on record as 7 fold in [2] (one-hour p.i.) and “more than 17.5 fold” in data set [2] (two-hours p.i.).
Take `O=C(O)CC[C@H](NC(=O)N[C@@H](CCCCNC(=O)[C@@H](NC(=O)c1ccc(CNC(=O)CN2CCN(CC(=O)O)CCN(CC(=O)O)CCN(CC(=O)O)CC2)cc1)C(c1ccccc1)c1ccccc1)C(=O)O)C(=O)O` [P19, Glu-urea-Lys-3,3-diphenyl-L-Ala-AMBA-DOTA]: the “Radiochemical purity in physiological pH environment” value in [3] (each time-point tested (30, 60, 120 min)) was “highest stability”. For the same molecule, in data set [2] (two-hours p.i.), the tumour-to-blood ratio was 9.1 ± 1.7 and the tumour-to-muscle ratio is 47.8 ± 12.4.
As for `O=C(O)CC[C@H](NC(=O)N[C@@H](CCCCNC(=O)[C@H](Cc1ccc2ccccc2c1)NC(=O)[C@H]1CC[C@H](CNC(=O)CN2CCN(CC(=O)O)CCN(CC(=O)O)CCN(CC(=O)O)CC2)CC1)C(=O)O)C(=O)O` [PSMA-617, Glu-urea-Lys-2-Nal-L-Ala-CHX-DOTA, reference compound], the “tumour-to-background ratio, fold higher than [68Ga]Ga-P19” value in [2] (two hours after administration) is recorded as roughly 1.5 fold. Also, the Ki in data set [1] (ref Benešová et al. [2015]) was 2.34 nM. Further, the fraction unbound at 0 min, 2.25 kBq/100 µL in [4] (incubation time 0 min) is 0.47. Besides, the fraction unbound at 120 min, 2.25 kBq/100 µL in [4] (incubation time 120 min) was 0.46.
Turning to `O=C([O-])CN1CCN(CC(=O)[O-])CCN(CC(=O)NCC2CCC(C(=O)NC(Cc3ccc4ccccc4c3)C(=O)NCCCCC(NC(=O)NC(CCC(=O)O)C(=O)O)C(=O)O)CC2)CCN(CC(=O)[O-])CC1.[68Ga+3]` (centres unmarked) [[^68Ga]Ga-PSMA-617, reference compound], the “Stability in Physiological pH (%)” value turned out to be 98.4% in data set [3] (incubation time 0 min), 98.5% in data set [3] (incubation time 30 min), 98.9% in data set [3] (incubation time 60 min) and 98.5% in [3] (incubation time 120 min). Besides, the tumour-to-blood ratio in data set [2] (one-hour p.i.) worked out at 5.5 ± 2.0; in data set [2] (two-hours p.i.), 13.6 ± 7.0. Moreover, the tumour-to-kidney ratio in [2] (one-hour p.i.) was found to be 0.12 ± 0.03; in data set [2] (two hours post injection), 1.26 ± 0.46. For the same molecule, the tumour-to-muscle ratio in data set [2] (two-hours p.i.) is recorded as 68.4 ± 66.1. Also, the “Stability in human serum (%)” value in [5] (incubation time 30 min) was found to be 97.8%; in [5] (incubation time 60 min), 98.2%; in [5] (incubation time 120 min), 98.7%; in data set [9], 98.4%. In data set [6] (human, ref Benešová et al. [2018]), the “Binding to plasma proteins” value is recorded as 59%. Besides, in [6] (ref Umbricht et al. [2018]), the “Binding to human plasma proteins” value is listed as 59%. Further, the “Protein binding (%)” value in data set [7] (incubation time 0 min) turned out to be 52.6%; in [7] (incubation time 30 min), 52.9%; in [7] (incubation time 60 min), 53.3%; in data set [7] (incubation time 120 min) it was 54.3%. The “Binding rate to human plasma proteins” value in [7] (overall statement, incubation up to 120 min) is “approximately 54%”. For the same molecule, the “Binding to mouse serum proteins” value in [8] is given as 6%.
